{"source": "paper PMC8762745", "about": "(ACS Medicinal Chemistry Letters, 2021)", "target": "T1, human TAAR1 receptor (Homo sapiens, UniProt Q96RJ0)", "T1 sequence (Q96RJ0 1-339)": "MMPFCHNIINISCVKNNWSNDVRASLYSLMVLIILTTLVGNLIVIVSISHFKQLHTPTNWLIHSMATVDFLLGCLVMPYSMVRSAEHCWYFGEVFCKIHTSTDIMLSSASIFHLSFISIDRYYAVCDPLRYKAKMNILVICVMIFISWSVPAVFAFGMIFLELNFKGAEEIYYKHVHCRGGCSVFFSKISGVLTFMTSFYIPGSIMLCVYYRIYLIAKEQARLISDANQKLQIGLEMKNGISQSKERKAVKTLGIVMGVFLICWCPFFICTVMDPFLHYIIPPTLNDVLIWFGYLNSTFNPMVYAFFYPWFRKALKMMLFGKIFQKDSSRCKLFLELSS", "assay": "Human TAAR1 agonist assay", "details": "for fold less active for TAAR1 than β-PEA (2): EC50 ratio versus β-PEA (2); for fold less potent for TAAR1 than racemic ulotaront 20: EC50 ratio versus racemic ulotaront 20"}
{"compound": "NC[C@@H]1OCCc2ccsc21", "note": "[compound 22]", "values": [{"measurement": "fold more potent for TAAR1 than ulotaront", "result": "about 11 fold"}]}
{"compound": "CNC[C@]1(C)OCCc2ccsc21", "note": "[compound 21]", "values": [{"measurement": "fold less potent for TAAR1 than ulotaront", "result": "> 1000", "unit": "fold"}]}
{"compound": "CNC[C@@H]1OCCc2sccc21", "note": "[compound 29]", "values": [{"measurement": "fold less potent for TAAR1 than ulotaront", "result": 3, "unit": "fold"}]}
{"compound": "NCCc1ccc(O)cc1", "note": "[compound 4, p-tyramine, reference compound]", "values": [{"measurement": "fold less active for TAAR1 than β-PEA (2)", "result": "about 5 fold"}]}
{"compound": "NCCc1cccs1", "note": "[compound 30, thiophen-2-ylethanamine]", "values": [{"measurement": "fold more potent for TAAR1 than the other ring opened thiophene (31)", "setting": "EC50 ratio versus 31", "result": "approximately 3 fold"}]}
{"compound": "NC[C@@H](O)c1ccc(O)cc1", "note": "[6b, (+)-octopamine, reference compound]", "values": [{"measurement": "fold less active for TAAR1 than p-tyramine (4)", "result": 54, "unit": "fold"}]}
{"compound": "CNC[C@H](O)c1ccc(O)cc1", "note": "[7a, (−)-synephrine, reference compound]", "values": [{"measurement": "fold reduced TAAR1 activity compared to 6a", "setting": "EC50 ratio versus (−)-octopamine 6a", "result": "approximately 3 fold"}]}
{"compound": "CNCC1OCCc2cscc21", "note": "(stereo not shown) [compound 28]", "values": [{"measurement": "fold less potent for TAAR1 than racemic ulotaront 20", "result": "~6", "unit": "fold"}]}
{"compound": "c1cc2c(s1)[C@H](CN1CCCC1)OCC2", "note": "[compound 24]", "values": [{"measurement": "fold less potent for TAAR1 than ulotaront", "result": 189, "unit": "fold"}]}
{"compound": "CNCCc1ccccc1", "note": "[compound 3, N-methylphenethylamine, reference compound]", "values": [{"measurement": "fold less active for TAAR1 than β-PEA (2)", "result": "approximately 10 fold"}]}
{"compound": "NCCc1c[nH]c2ccccc12", "note": "[compound 10, tryptamine, reference compound]", "values": [{"measurement": "fold less active for TAAR1 than β-PEA (2)", "result": "about 150 fold"}]}
{"compound": "NCC[C@@H]1OCCc2ccsc21", "note": "[compound 25]", "values": [{"measurement": "fold reduced TAAR1 activity compared to N-demethylated analogue 22", "setting": "EC50 ratio versus 22", "result": 67, "unit": "fold"}]}
{"compound": "NC[C@H](O)c1ccc(O)cc1", "note": "[6a, (−)-octopamine, reference compound]", "values": [{"measurement": "fold less active for TAAR1 than p-tyramine (4)", "result": 21, "unit": "fold"}]}
{"compound": "NCCc1cccc(O)c1", "note": "[compound 5, m-tyramine, reference compound]", "values": [{"measurement": "fold less active for TAAR1 than β-PEA (2)", "result": "~23", "unit": "fold"}]}
{"compound": "NCC1OCCCc2ccsc21", "note": "(stereo not shown) [compound 27]", "values": [{"measurement": "fold more potent for TAAR1 compared to 26", "setting": "EC50 ratio versus 26", "result": "about 5 fold"}]}
{"compound": "CNCC1OCCCc2ccsc21", "note": "(stereo not shown) [compound 26]", "values": [{"measurement": "fold less potent for TAAR1 than racemic ulotaront 20", "result": "approximately 6 fold"}]}
